According to patent US20130137739A1, “SOLID DISPERSION COMPRISING TRIAZOLE COMPOUND” (Astellas Pharma, Inc., priority 2010, published 2013):
Values after ≈ are worked out from the molar mass of the structure shown. Read-outs that look alike come from different tables or passages of the source.

Key:
[1] = Glass transition point (Tg) by DSC; format: physicochemical; details: Compound A itself
Method: The glass transition point of a solid dispersion can be obtained by subjecting the solid dispersion to calorimetric measurements using DSC and plotting a curve of changes in the amount of heat. In more practical terms a sample of about 10 mg is weighed out onto an aluminum pan and calorimetry is carried out for temperatures from 0° C. and 150° C. with a rate of temperature increase of 5° C. per minute. In the process of heating the sample heat is absorbed or generated at the glass transition point and, as a result, the baseline of the calorimetric curve will shift downward. Extended lines are drawn for the two baselines, namely the original baseline and the shifted baseline, and the glass transition temperature is obtained from the intersection point of the ½ line between the two baselines and the calorimetric curve.
Particles of the solid dispersion (about 10 mg) of each example and comparative example were weighed out on an aluminum pan and calorimetric measurements were made at temperatures between 0° C. to 150° C. with a rate of temperature increase of 5° C. per minute. Heat was absorbed or generated at the glass transition point in the course of heating the sample and, as a result, the baseline of the calorimetric curve shifted downward. […]

[2] = Solubility of Compound A in water and organic solvents; format: physicochemical

glass transition point of Compound A [1]: 4 °C
solubility ([2]; acetone, organic solvent or mixture, room temperature, read-out: solubility in organic solvent: acetone): 82.2 mg/mL (≈ 264 mM)
solubility ([2]; ethanol, organic solvent or mixture, room temperature, read-out: solubility in organic solvent: ethanol): 15.9 mg/mL (≈ 51.1 mM)
solubility ([2]; polyethylene glycol, organic solvent or mixture, room temperature, read-out: solubility in organic solvent: polyethylene glycol): 6.3 mg/mL (≈ 20.2 mM)
solubility ([2]; water, 37° C., read-out: solubility in water): 0.0107 mg/mL (≈ 0.0344 mM)
Compound: COc1ccc(-c2nc(OC)nn2-c2ccc(OC)cc2)cc1 [Compound A, 3-methoxy-1,5-bis(4-methoxyphenyl)-1H-1,2,4-triazole]
